How the values were obtained:
H-2 Kb cells = assay: Glucose uptake in H-2 Kb cells (in vitro cellular test); assay type: cell-based, mouse; details: differentiated H-2 Kb muscle cells, 4 hours incubation, 2-deoxy-D-[3H]glucose 10 min; for EC (glucose uptake equal or higher to insulin 170 nM): Mus musculus, read-out: activity: Concentration of compound for a glucose uptake equal or higher to glucose uptake induced by insulin (170 nM)
Experimental: The following cellular test allows the determination of the effect of AMPK activators such as compounds of formula (I) onto glucose uptake in a muscle cellular model.
H-2 Kb cells derived from heterozygous H-2 Kb tsA58 transgenic mouse were grown in 24-well in plates coated with matrigel and were cultured at 33° C. for 4 days under permissive conditions, as described previously by Fryer et al. (Diabetes 49 (12): 1978, 2000).
For differentiation in muscle, cells were switched to non-permissive culture conditions (37° C. in the absence of interferon-γ). After 3 days, cells were incubated for 4 hours in DMEM 1 g/l glucose culture medium containing different concentrations of the tested molecules. Then glucose uptake was measured by incubating the cells for 10 min with radiolabelled 2-deoxy-D-[1, 2 ^3H] glucose. Glucose uptake was terminated by rapidly washing the plates 2 times with ice-cold NaCl 0.9%. The cells were then solubilized in 0.1N NaOH for 30 min. Radioactivity was determined by liquid scintillation counting.
Activity table III: Concentration of compound (1) for a glucose uptake equal or higher to glucose uptake induced by insulin (170 nM)

[1] = biological target: T1, AMPK protein (recombinant α1β1γ2) (Homo sapiens, UniProt Q13131+Q9Y478); assay: AMPK enzymatic activity (Delfia, AMARA peptide); assay type: biochemical; details: compound 30 μM vs AMP 30 μM; 125 μM ATP; 30 min room temperature; ratio 90% or higher = direct activator
T1 construct: made in house; host or cells: E. coli
Experimental: The following biological test allows the determination of the efficacy of such compounds of formula (I) onto AMPK protein (recombinant α1β1γ2).
Human recombinant AMPK enzyme was expressed in E. Coli and was reactivated in vitro by LKB1 prior to enzyme activity determination.
AMPK enzyme activities were assayed by using A Delfia technology. AMPK enzyme activities were carried out in microtiter plates (50 mM Hepes buffer, pH 7.4 with 125 μM ATP respectively) in the presence of a synthetic peptide substrate (AMARAASAAALARRR, the “AMARA” peptide) and activators in serial dilutions. Reactions were initiated by the addition of AMPK (50-100 ng). Following mixing, the plates were incubated for 30 min at room temperature. Enzyme activity was assayed by using an anti-phosphoserine antibody to measure the quantity of phosphate incorporated into the AMARAA.
Ratio between the % of control (basal activity) of compound of formula (I) at 30 μM and the % of control (basal activity) of AMP (natural substrate) at 30 μM. Compounds of formula (I) in the table II are considered as direct activator of AMPK if the ratio is 90% or higher.

T1 sequence (Q13131 whole entry): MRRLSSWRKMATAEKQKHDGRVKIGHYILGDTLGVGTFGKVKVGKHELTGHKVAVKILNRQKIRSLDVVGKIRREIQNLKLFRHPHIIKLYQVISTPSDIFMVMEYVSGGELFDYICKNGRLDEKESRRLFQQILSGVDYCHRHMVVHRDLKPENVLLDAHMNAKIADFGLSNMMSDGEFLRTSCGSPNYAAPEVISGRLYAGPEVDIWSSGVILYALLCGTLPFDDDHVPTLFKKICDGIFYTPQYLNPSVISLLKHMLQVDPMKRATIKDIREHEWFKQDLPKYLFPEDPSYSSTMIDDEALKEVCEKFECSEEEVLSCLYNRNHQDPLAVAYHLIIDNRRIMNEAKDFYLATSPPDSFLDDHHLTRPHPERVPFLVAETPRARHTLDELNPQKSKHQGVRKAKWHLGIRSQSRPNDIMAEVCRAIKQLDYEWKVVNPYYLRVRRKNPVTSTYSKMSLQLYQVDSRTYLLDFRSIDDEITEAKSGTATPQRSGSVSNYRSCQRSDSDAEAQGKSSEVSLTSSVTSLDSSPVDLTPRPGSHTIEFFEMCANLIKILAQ
T1 sequence (Q9Y478 whole entry): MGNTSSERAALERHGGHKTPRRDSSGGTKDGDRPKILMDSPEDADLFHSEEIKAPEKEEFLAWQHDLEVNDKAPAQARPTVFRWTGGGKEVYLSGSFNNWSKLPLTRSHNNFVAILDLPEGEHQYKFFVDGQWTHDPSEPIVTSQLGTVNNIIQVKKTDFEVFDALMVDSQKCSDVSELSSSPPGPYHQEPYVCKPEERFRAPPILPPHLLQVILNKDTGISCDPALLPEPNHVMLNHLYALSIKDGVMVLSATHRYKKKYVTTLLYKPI
T1 sequence (Q9UGJ0 whole entry partner): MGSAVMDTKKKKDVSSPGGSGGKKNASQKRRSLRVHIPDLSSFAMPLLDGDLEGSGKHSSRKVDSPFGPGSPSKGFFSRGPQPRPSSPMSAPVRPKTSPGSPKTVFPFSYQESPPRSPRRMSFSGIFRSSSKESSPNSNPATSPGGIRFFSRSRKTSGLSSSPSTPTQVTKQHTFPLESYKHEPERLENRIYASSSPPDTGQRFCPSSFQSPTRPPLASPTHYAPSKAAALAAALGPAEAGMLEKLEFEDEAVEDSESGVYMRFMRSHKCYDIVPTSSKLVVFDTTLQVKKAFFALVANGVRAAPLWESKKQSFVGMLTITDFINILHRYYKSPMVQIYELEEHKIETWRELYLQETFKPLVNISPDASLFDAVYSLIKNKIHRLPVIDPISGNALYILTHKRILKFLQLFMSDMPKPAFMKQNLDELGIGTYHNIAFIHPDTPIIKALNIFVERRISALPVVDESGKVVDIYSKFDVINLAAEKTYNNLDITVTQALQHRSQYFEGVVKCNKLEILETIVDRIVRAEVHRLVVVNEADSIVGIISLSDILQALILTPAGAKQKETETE

SMILES	EC (glucose uptake equal or higher to insulin 170 nM) (H-2 Kb cells)	activity: Ratio between the % of control (basal activity) of compound of formula (I) at 30 μM and the % of control (basal activity) of AMP at 30 μM [1]	activity: Concentration of compound for a glucose uptake equal or higher to glucose uptake induced by insulin (170 nM) (H-2 Kb cells)
O=c1[nH]c2scc(-c3ccc(-c4ccccc4)cc3)c2c(O)c1-c1ccccc1 [Compound 1, 3-biphenyl-4-yl-4-hydroxy-5-phenyl-6,7-dihydro-thieno[2,3-b]pyridin-6-one]	> 10 µM	130%	–
COc1ccccc1-c1ccc(-c2csc3[nH]c(=O)c(-c4ccccc4)c(O)c23)cc1 [Compound 2, 4-hydroxy-3-(2′-methoxybiphenyl-4-yl)-5-phenyl-6,7-dihydro-thieno[2,3-b]pyridin-6-one]	> 10 µM	158%	–
COc1ccccc1-c1ccc(-c2c(Cl)sc3[nH]c(=O)c(-c4ccccc4)c(O)c23)cc1 [Compound 3, 2-chloro-4-hydroxy-3-(2′-methoxybiphenyl-4-yl)-5-phenyl-6,7-dihydro-thieno[2,3-b]pyridin-6-one]	–	111%	** (concentration of compound (I) ≦10 microMolar)
O=c1[nH]c2scc(-c3ccc(-c4ccccc4O)cc3)c2c(O)c1-c1ccccc1 [Compound 4, 4-hydroxy-3-(2′-hydroxybiphenyl-4-yl)-5-phenyl-6,7-dihydro-thieno[2,3-b]pyridin-6-one]	> 10 µM	126%	–
O=c1[nH]c2scc(-c3ccc(-c4ccccc4F)cc3)c2c(O)c1-c1ccccc1 [Compound 6, 3-(2′-fluorobiphenyl-4-yl)-4-hydroxy-5-phenyl-6,7-dihydro-thieno[2,3-b]pyridin-6-one]	> 10 µM	191%	–
Cc1ccccc1-c1ccc(-c2csc3[nH]c(=O)c(-c4ccccc4)c(O)c23)cc1 [Compound 7, 4-hydroxy-3-(2′-methylbiphenyl-4-yl)-5-phenyl-6,7-dihydro-thieno[2,3-b]pyridin-6-one]	> 10 µM	141%	–
O=c1[nH]c2scc(-c3ccc(-c4cccc(O)c4)cc3)c2c(O)c1-c1ccccc1 [Compound 9, 4-hydroxy-3-(3′-hydroxybiphenyl-4-yl)-5-phenyl-6,7-dihydro-thieno[2,3-b]pyridin-6-one]	> 10 µM	120%	–
Cc1cccc(-c2ccc(-c3csc4[nH]c(=O)c(-c5ccccc5)c(O)c34)cc2)c1 [Compound 11, 4-hydroxy-3-(3′-methylbiphenyl-4-yl)-5-phenyl-6,7-dihydro-thieno[2,3-b]pyridin-6-one]	> 10 µM	150%	–
CS(=O)(=O)c1ccc(-c2ccc(-c3csc4[nH]c(=O)c(-c5ccccc5)c(O)c34)cc2)cc1 [Compound 20, 4-hydroxy-3-(4′-methylsulfonylbiphenyl-4-yl)-5-phenyl-6,7-dihydro-thieno[2,3-b]pyridin-6-one]	> 10 µM	206%	–
COc1cc(-c2csc3[nH]c(=O)c(-c4ccccc4)c(O)c23)ccc1-c1ccccc1 [Compound 45, 4-hydroxy-3-(2-methoxybiphenyl-4-yl)-5-phenyl-6,7-dihydro-thieno[2,3-b]pyridin-6-one]	–	120%	–
COc1cc(-c2csc3[nH]c(=O)c(-c4ccccc4)c(O)c23)ccc1-c1ccc(C)cc1 [Compound 46, 4-hydroxy-3-(4′-methyl-2-methoxybiphenyl-4-yl)-5-phenyl-6,7-dihydro-thieno[2,3-b]pyridin-6-one]	–	124%	–
COc1cc(-c2csc3[nH]c(=O)c(-c4ccccc4)c(O)c23)ccc1-c1ccc(F)cc1 [Compound 47, 3-(4′-fluoro-2-methoxybiphenyl-4-yl)-4-hydroxy-5-phenyl-6,7-dihydro-thieno[2,3-b]pyridin-6-one]	–	118%	–
COc1cc(-c2csc3[nH]c(=O)c(-c4ccccc4)c(O)c23)ccc1-c1ccc(O)cc1 [Compound 48, 4-hydroxy-3-(4′-hydroxy-2-methoxybiphenyl-4-yl)-5-phenyl-6,7-dihydro-thieno[2,3-b]pyridin-6-one]	–	264%	–
Cc1ccc(-c2ccc(-c3csc4[nH]c(=O)c(-c5ccccc5)c(O)c34)cc2O)cc1 [Compound 50, 4-hydroxy-3-(2-hydroxy-4′-methylbiphenyl-4-yl)-5-phenyl-6,7-dihydro-thieno[2,3-b]pyridin-6-one]	–	421%	–
O=c1[nH]c2scc(-c3ccc(-c4ccc(O)cc4)c(O)c3)c2c(O)c1-c1ccccc1 [Compound 51, 4-hydroxy-3-(2,4′-hydroxybiphenyl-4-yl)-5-phenyl-6,7-dihydro-thieno[2,3-b]pyridin-6-one]	–	384%	–
COc1cc(-c2csc3[nH]c(=O)c(-c4ccccc4)c(O)c23)ccc1-c1ccc(C(=O)O)cc1 [Compound 52, 4′-(4-hydroxy-6-oxo-5-phenyl-6,7-dihydro-thieno[2,3-b]pyridin-3-yl)-2′-methoxybiphenyl-4-carboxylic acid]	–	219%	–
O=C(O)c1ccc(-c2ccc(-c3csc4[nH]c(=O)c(-c5ccccc5)c(O)c34)cc2O)cc1 [Compound 53, 2′-hydroxy-4′-(4-hydroxy-6-oxo-5-phenyl-6,7-dihydro-thieno[2,3-b]pyridin-3-yl)biphenyl-4-carboxylic acid]	–	376%	–
COc1cc(-c2csc3[nH]c(=O)c(-c4ccccc4)c(O)c23)ccc1-c1cccc(CO)c1 [Compound 55, 4-hydroxy-3-(3′-hydroxymethyl-2-methoxybiphenyl-4-yl)-5-phenyl-6,7-dihydro-thieno[2,3-b]pyridin-6-one]	–	160%	–
COc1cc(-c2csc3[nH]c(=O)c(-c4ccccc4)c(O)c23)ccc1-c1cccnc1 [Compound 56, 4-hydroxy-3-[3-methoxy-4-pyridin-3-ylphenyl]-5-phenyl-6,7-dihydro-thieno[2,3-b]pyridin-6-one]	–	143%	–
O=c1[nH]c2scc(-c3ccc(-c4ccncc4)cc3O)c2c(O)c1-c1ccccc1 [Compound 57, 4-hydroxy-3-[2-hydroxy-4-pyridin-4ylphenyl]-5-phenyl-6,7-dihydro-thieno[2,3-b]pyridin-6-one]	–	243%	–
O=c1[nH]c2scc(-c3ccc(-c4cccc(CO)c4)cc3)c2c(O)c1-c1ccccc1 [Compound 58, 4-hydroxy-3-(3′-hydroxymethylbiphenyl-4-yl)-5-phenyl-6,7-dihydro-thieno[2,3-b]pyridin-6-one]	–	111%	–
O=c1[nH]c2scc(-c3ccc(-c4ccc(CO)cc4)cc3)c2c(O)c1-c1ccccc1 [Compound 59, 4-hydroxy-3-(4′-hydroxymethylbiphenyl-4-yl)-5-phenyl-6,7-dihydro-thieno[2,3-b]pyridin-6-one]	–	128%	–
